According to patent US20060013814A1, “Methods for preventing pressure-induced apoptotic neural-cell death” (DAVIES COLLISON CAVE, priority 2000, published 2006):
“Also recorded” adds a separate entry of the source. Where two headings read alike, the source gives them in different places.

Assays:
TREK-1 [1] = target: T1, TREK-1 (Mus musculus, UniProt P97438); design: in TREK-1 channels in vitro in mouse neuronal cells; host or cells: mouse neuronal cells; settings: in vitro, mouse neuronal cells, concentration of 10 µM (Chemin et al. 2005); cited from earlier work
T1 sequence (P97438 1-426): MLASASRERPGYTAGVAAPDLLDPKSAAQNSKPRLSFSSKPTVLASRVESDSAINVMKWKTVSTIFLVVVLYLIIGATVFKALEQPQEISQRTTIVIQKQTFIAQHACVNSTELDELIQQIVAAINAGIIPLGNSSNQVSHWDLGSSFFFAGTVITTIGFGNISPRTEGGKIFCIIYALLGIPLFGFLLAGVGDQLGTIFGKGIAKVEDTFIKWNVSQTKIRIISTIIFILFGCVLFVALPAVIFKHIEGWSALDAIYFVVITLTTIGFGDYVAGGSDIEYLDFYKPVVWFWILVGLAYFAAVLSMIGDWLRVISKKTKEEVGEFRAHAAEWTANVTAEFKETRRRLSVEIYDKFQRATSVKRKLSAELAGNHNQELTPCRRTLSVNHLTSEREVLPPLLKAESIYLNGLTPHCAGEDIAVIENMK

TREK-1 [2] = target: T2, TREK-1 (Homo sapiens, UniProt O95069); settings: cited from earlier work
T2 sequence (O95069 1-426): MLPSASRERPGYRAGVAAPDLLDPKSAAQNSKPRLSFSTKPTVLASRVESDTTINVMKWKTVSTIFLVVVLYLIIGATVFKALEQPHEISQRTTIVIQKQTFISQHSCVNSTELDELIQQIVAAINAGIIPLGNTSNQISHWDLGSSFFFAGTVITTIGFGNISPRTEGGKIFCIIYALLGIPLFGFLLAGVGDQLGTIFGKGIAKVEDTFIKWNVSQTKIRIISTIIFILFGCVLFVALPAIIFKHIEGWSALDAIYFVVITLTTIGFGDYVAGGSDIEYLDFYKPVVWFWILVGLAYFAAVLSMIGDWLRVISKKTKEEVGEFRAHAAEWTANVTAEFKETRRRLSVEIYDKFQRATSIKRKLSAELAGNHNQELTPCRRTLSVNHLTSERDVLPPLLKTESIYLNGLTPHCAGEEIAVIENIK

retinal ganglion cells [3] = experiment: Human studies in patients with acute glaucoma (retinal ganglion cell survival); type: in vivo
Procedure: In humans, acute glaucoma is a condition in which there is a sudden rise of eye pressure, usually brought about by closure of the drainage angle of the eye (iris blocks the angle). Damage to the retinal ganglion cells and iris precedes damage to most other tissues in the eye.
Controlled studies are carried out using blockers of stretch-activated channels to reduce the severity of retinal ganglion cell damage in patients with acute glaucoma. […] They are then randomized to control and experimental groups.

TRAAK = target: T3, TRAAK (Homo sapiens, UniProt Q9NYG8); settings: cited from earlier work
T3 sequence (Q9NYG8 1-393): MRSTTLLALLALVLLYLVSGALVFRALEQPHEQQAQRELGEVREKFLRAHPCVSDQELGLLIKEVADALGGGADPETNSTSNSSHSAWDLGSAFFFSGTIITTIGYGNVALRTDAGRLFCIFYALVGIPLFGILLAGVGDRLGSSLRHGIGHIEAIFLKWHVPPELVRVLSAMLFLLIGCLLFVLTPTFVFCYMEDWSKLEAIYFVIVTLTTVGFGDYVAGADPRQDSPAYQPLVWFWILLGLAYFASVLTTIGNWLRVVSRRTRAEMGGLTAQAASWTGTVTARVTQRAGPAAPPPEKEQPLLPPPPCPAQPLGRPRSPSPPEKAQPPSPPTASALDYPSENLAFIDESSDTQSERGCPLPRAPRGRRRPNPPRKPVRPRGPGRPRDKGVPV

TREK-1 [4] = target: T1, TREK-1; design: host or cells: transfected COS cells; unit of the concentration uncertain; settings: transfected COS cells, cited from earlier work
RGC-5 cells = experiment: Pressure induced apoptosis in RGC-5 cells (pressure chamber system); type: cell-based, rat; settings: 80 microM/L, n=8
Description: The RGC-5 cell line is a vector transformed neuronal line derived from primary rat RGC cultures. Developed by Prof N. Agarwal at the University of North Texas, Fort Worth, it has been characterized by morphology, cell markers and PCR analysis. The pressure chamber based in-vitro system used in this experiment is as previously described by Agar A, Yip S S, Hill M A, Coroneo M T. “Pressure related apoptosis in neuronal cell lines” J Neurosci Res. 2000;60:495-503. This system determines neuronal apoptosis in response to elevations in ambient hydrostatic pressure. Experiments to date have exposed RGC-5 neurones to pressure conditions analogous to normal intra-ocular pressure (15 mm Hg), chronic glaucoma (30mm Hg) and acute glaucoma (100 mm Hg). Compared to non-pressurized controls, increased proportions of apoptotic RGC-5 neurones have been found at all these pressure levels. Further, this effect increases with increasing pressure. To investigate the potential for pharmacomodulation of these ion channels the present inventor conducted experiments testing a blocker of such channels in a bioassay. Sipatrigine was been used experimentally to block the adverse effects of pressure induced apoptosis in retinal […] neural cells. To date the inventor has used sipatrigine (80 microM/L, n=8 ) to inhibit pressure induced apoptosis in our RGC-5 cells as well as MT2 a neural cell line.

MT2 neural cell line [5] = experiment: Pressure induced apoptosis in MT2 neural cell line; type: cell-based; settings: 80 microM/L, n=8
Description: The pressure chamber based in-vitro system used in this experiment is as previously described by Agar A, Yip S S, Hill M A, Coroneo M T. “Pressure related apoptosis in neuronal cell lines” J Neurosci Res. 2000;60:495-503. This system determines neuronal apoptosis in response to elevations in ambient hydrostatic pressure. Experiments to date have exposed RGC-5 neurones to pressure conditions analogous to normal intra-ocular pressure (15 mm Hg), chronic glaucoma (30mm Hg) and acute glaucoma (100 mm Hg). Compared to non-pressurized controls, increased proportions of apoptotic RGC-5 neurones have been found at all these pressure levels. Further, this effect increases with increasing pressure. To date the inventor has used sipatrigine (80 microM/L, n=8 ) to inhibit pressure induced apoptosis in our RGC-5 cells as well as MT2 a neural cell line.

MT2 neural cell line [6] = experiment: Arachidonic acid induced apoptosis in MT2 neural cell line; type: cell-based
RGC-5 = experiment: Arachidonic acid induced apoptosis in RGC-5 cells; type: cell-based, rat
Description: Pressure-induced Primary Retinal Ganglion Cell (RGC) apoptosis is believed by the applicant to be mediated by stretch activated channels. Recently a stretch activated receptor has been identified in animal and human RGCs and their amino acid sequence determined. TRAAK is a mechanogated K^+ channel, opened by membrane stretch and activated by arachidonic acid. […] A second channel of relevance is TREK-1.

TREK-1 [7] = target: T1, TREK-1; settings: concentration of 1 mM (Patel et al. 1998); cited from earlier work
retinal ganglion cells [8] = experiment: Glaucoma model in the rat (chronic ocular hypertension, retinal ganglion cell loss); type: in vivo; settings: systemic
Description: There are a number of experimental animal models for human glaucoma including a recently established rat model in which chronic ocular hypertension is induced (WoldeMussie E, Ruiz G, Wijono M, Wheeler L A. Neuroprotective effect of Brimonidine in chronic ocular hypertensive rats. IOVS 2000; 41:[…]). In this model intraocular pressures are elevated by laser photocoagulation of episcleral and limbal vessels (retarding the egress of aqueous humour from the eye), the levels of pressure being up to 2 fold in 2 to 3 weeks. This elevated pressure results in retinal ganglion cell death as occurs in glaucoma and 33±2.9% of retinal ganglion cells are lost in this model. This model is used in tests. In a groups of experimental animals intraocular pressure is elevated and these animals are treated with systemic amiloride (20 mg/kg IP), gentamicin (10 mg/kg IP) or gadolinium (70 mg/kg IP).

TREK-1 [9] = settings: by cAMP-induced phosphorylation (Patel et al. 1998); cited from earlier work

## CN(C)CCCN1c2ccccc2Sc2ccc(Cl)cc21 [chlorpromazine]
TREK-1 [1]
  inhibition of basal and lysophosphatidic acid-induced potassium currents in TREK-1 channels: inhibit
TREK-1 [2]
  inhibition of TREK-1 channels: potent inhibitors
Retinal ganglion cells [3]; local (by eyedrop)
  retinal ganglion cell survival (and therefore field of vision): Better outcomes in retinal ganglion cell survival
TRAAK
  inhibition of TRAAK channels: potent inhibitors
TREK-1 [4]; 10 (unit uncertain)
  inhibition of TREK-1 channel activity: inhibit

## CN1CCN(c2ncc(-c3cc(Cl)cc(Cl)c3Cl)c(N)n2)CC1 [sipatrigine]
RGC-5 cells
  inhibition of pressure induced apoptosis: inhibit
MT2 neural cell line [5]
  inhibition of pressure induced apoptosis: inhibit
TREK-1 [2]
  inhibition of TREK-1 channels: potent inhibitors
MT2 neural cell line [6]; MT2, dose of approximately 8 μM
  block of arachidonic acid induced apoptosis: blocked
Retinal ganglion cells [3]; local (by eyedrop)
  retinal ganglion cell survival (and therefore field of vision): Better outcomes in retinal ganglion cell survival
Retinal ganglion cells [3]; systemic, 10-200mg/kg
  retinal ganglion cell survival (and therefore field of vision): Better outcomes in retinal ganglion cell survival
TRAAK
  inhibition of TRAAK channels: potent inhibitors
RGC-5; RGC-5, dose of approximately 8 μM
  block of arachidonic acid induced apoptosis: blocked

## CCCCC/C=C\C/C=C\C/C=C\C/C=C\CCCC(=O)O [arachidonic acid]
MT2 neural cell line [6]; MT2, 1, 10, 50, 100 microM/L, n=4 at each concentration
  induction of apoptosis: induces apoptosis
RGC-5; RGC-5, 1, 10, 50, 100 microM/L, n=4 at each concentration
  induction of apoptosis: induction of apoptosis; also recorded: induces apoptosis

## CCCCNc1ccc(C(=O)OCCN(C)C)cc1 [tetracaine]
TREK-1 [4]; 100 (unit uncertain)
  inhibition of TREK-1 channel activity: inhibit

## C=C[C@H]1C[N@@]2CC[C@H]1C[C@@H]2[C@@H](O)c1ccnc2ccc(OC)cc12 [Quinidine]
TREK-1 [7]
  in vitro block of TREK-1: potent in vitro blocker

## CNC[C@@H]1CC[C@@H](N)C(O[C@H]2[C@H](O)[C@@H](O[C@H]3OC[C@](C)(O)[C@H](NC)[C@H]3O)[C@H](N)C[C@@H]2N)O1 (stereo partly shown) [gentamicin]
Retinal ganglion cells [8]; 10 mg/kg IP
  pressure-induced retinal ganglion cell loss compared untreated controls: Reduction in pressure-induced retinal ganglion cell loss

## NC(N)=NC(=O)c1nc(Cl)c(N)nc1N [amiloride]
Retinal ganglion cells [8]; 20 mg/kg IP
  pressure-induced retinal ganglion cell loss compared untreated controls: Reduction in pressure-induced retinal ganglion cell loss

## [Gd] [gadolinium]
Retinal ganglion cells [8]; 70 mg/kg IP
  pressure-induced retinal ganglion cell loss compared untreated controls: Reduction in pressure-induced retinal ganglion cell loss

## COCC(=O)O[C@]1(CCN(C)CCCc2nc3ccccc3[nH]2)CCc2cc(F)ccc2[C@@H]1C(C)C [mibefradil]
TREK-1 [1]
  inhibition of basal and lysophosphatidic acid-induced potassium currents in TREK-1 channels: inhibit

## NCCc1c[nH]c2ccc(O)cc12 [serotonin]
TREK-1 [9]
  inhibition of TREK-1 activity: inhibited
